Test results published in article PMC6071539 (Theranostics, 2018).

Key:
[1] = test system: advanced HCC; conditions: patients with advanced HCC; cited from earlier work
[2] = test system: Hep 3B; experiment: In vitro cytotoxicity, MTT assay, Hep 3B; format: cell-based; conditions: Homo sapiens, Hep3B, 72 h, read-out: IC50 ± SD
[3] = test system: BEL-7402; experiment: In vitro cytotoxicity, MTT assay, BEL-7402; format: cell-based; conditions: Homo sapiens, Bel-7402, 72 h, read-out: IC50 ± SD
[4] = test system: Hep 3B cells; experiment: Cell proliferation by EdU incorporation; format: cell-based, human; conditions: 2 μM SN38 equivalent, 24 h
[5] = test system: human HCC PDX tumors; experiment: Antitumor activity in human HCC PDX tumor model; format: in vivo, Balb/c nude mice; conditions: i.v. x3
[6] = Bloody diarrhea and intestinal damage study; format: in vivo, Balb/c mice
[7] = clinical; cited from earlier work
[8] = test system: carboxylesterases; conditions: in the body, background statement; cited from earlier work
[9] = Pharmacokinetics after single i.v. injection; conditions: Sprague-Dawley, rat, in vivo, iv, 12 mg/kg
[10] = Drug loading and encapsulation efficiency by RP-HPLC; format: physicochemical; conditions: PEG5k-PLA8k NPs, matrices/SN38 feed weight ratio 19:1, n = 3

Which “Extension of median overall survival compared with a placebo” value [1] does the source give for `CNC(=O)c1cc(Oc2ccc(NC(=O)Nc3ccc(Cl)c(C(F)(F)F)c3)cc2)ccn1` [sorafenib] here?
The value was 2.8 months.

What does the source list for `CCc1c2c(nc3ccc(OC(=O)N4CCC(N5CCCCC5)CC4)cc13)-c1cc3c(c(=O)n1C2)COC(=O)[C@]3(O)CC` [CPT-11, irinotecan]?
IC50 [2]: 49.3 ± 3.3 µM; IC50 [3]: 42 ± 2.06 µM; Effect on proliferation (EdU incorporation) [4]: negligible effect; Antitumor efficacy [5]: moderate efficacy; Large intestine histology (H&E) ([6]; day 9, healthy Balb/c mice): destruction of these tissues by eliminating the glands and causing diffuse mucosal damage; Onset of bloody diarrhea ([6]; healthy Balb/c mice, CPT-11 22.5 mg/kg i.v. x3): 2 days; Incidence of grade 3 or 4 diarrhea [7]: 31%; Enzymatic conversion to SN38, share of dosed CPT-11 [8]: less than 8%; AUC(0-inf) [9]: 68900 ng·h/mL; AUC(0-t) [9]: 67600 ng·h/mL; Cmax [9]: 23800 ng/mL

With `CCc1c2c(nc3ccc(O)cc13)-c1cc3c(c(=O)n1C2)COC(=O)[C@]3(O)CC` [SN38, 7-ethyl-10-hydroxycamptothecin] as the molecule, how does the IC50 [2] read?
The IC50 was 7.74 ± 1.18 µM.

What about the IC50 [3] of the same molecule?
The IC50 was 2.76 ± 0.16 µM.

What about the “EE (encapsulation efficiency)” value [10] of the same molecule?
Its value is under 5%.
